The values below come from ChEMBL document CHEMBL1159150, “Synthesis and anticonvulsant properties of BW A78U structurally-related compounds” (1995).

Calls of active or inactive are those of the source. The rule behind the calls is not given here.

Experiment [1] deals with Rattus norvegicus. The experiment in a line: Anticonvulsant activity for tonic seizure by ip administration at a dose of 10 mg/kg. The conditions noted are these: route intraperitoneal, read-out: ID50 (the source's name). The class given is functional.
The test system of experiment [2] is Rattus norvegicus. The experiment in a line: Percent of rats protected from tonic seizure by ip administration at a dose of 10 mg/kg for anticonvulsant activity. It is filed as functional. The conditions noted are these: route intraperitoneal.
For experiment [3], the system named is Rattus norvegicus. Description: Percent of rats protected from tonic seizure by ip administration at a dose of 40 mg/kg for anticonvulsant activity. It is filed as functional. The note with it: route intraperitoneal.
In experiment [4] the test system is Rattus norvegicus. The experiment in a line: Anticonvulsant activity for tonic seizure by ip administration at a dose of 10 mg/kg; Inactive. On the set-up: dose 10 mg/kg. The class given is functional, organism-based.

On to `CNc1ncnc2c1ncn2Cc1ccccc1F` [BW-A78U], for which the ED50 in experiment [1] turned out to be 4 mg/kg. In experiment [2], this molecule yielded a Protection of 100%.

Regarding `NC(=O)c1cc(Cc2ccccc2)ccn1`, the Protection is 50% in experiment [2] and 100% in experiment [3].

With `CNc1cc(N(Cc2ccccc2)C(C)=O)ncn1`, the Protection in experiment [2] came to 20%; in experiment [3], 55%.

`CNc1ncnc2c1cnn2Cc1ccccc1F`: the ID50 result in experiment [4] was “inactive”. For the same molecule, the Protection in experiment [2] amounted to 0%; in experiment [3], 65%.

For the molecule `CNc1ncn(Cc2ccccc2F)c2ncnc1-2`, the ED50 in experiment [1] was 10 mg/kg. Also, the Protection in experiment [2] amounted to 50%; in experiment [3], 100%.

Take `Cc1nc(C(N)=O)c(CCc2ccccc2)s1`: the Protection in experiment [2] is listed as 30%; in experiment [3], 65%.

For the molecule `CNC(=O)c1cn(Cc2ccccc2)cn1`, the results for the Protection in experiment [2] and in experiment [3] were 20% and 90%, respectively.

Turning to `Cc1nc(CCc2ccccc2)c(C(N)=O)nc1C`, the Protection is given as 0% in experiment [2] and 30% in experiment [3].

As for `CNc1nccn2c(Cc3ccccc3)nnc12`, the values for the Protection in experiment [2] and in experiment [3] were 65% and 100%, respectively.
